Test results published in US9802960B2 (MILLENNIUM PHARMACEUTICALS, INC., priority 2014, dated 2017).

Biological target: Human VPS34 (Homo sapiens (Human), UniProt Q8NEB9)
Experiment: Human VPS34 enzyme assay (Adapta TR-FRET)
Assay type: biochemical
Settings: compound concentration 1.11 μM; read-out: Percent Inhibition

Human VPS34, sequence (Q8NEB9 whole entry): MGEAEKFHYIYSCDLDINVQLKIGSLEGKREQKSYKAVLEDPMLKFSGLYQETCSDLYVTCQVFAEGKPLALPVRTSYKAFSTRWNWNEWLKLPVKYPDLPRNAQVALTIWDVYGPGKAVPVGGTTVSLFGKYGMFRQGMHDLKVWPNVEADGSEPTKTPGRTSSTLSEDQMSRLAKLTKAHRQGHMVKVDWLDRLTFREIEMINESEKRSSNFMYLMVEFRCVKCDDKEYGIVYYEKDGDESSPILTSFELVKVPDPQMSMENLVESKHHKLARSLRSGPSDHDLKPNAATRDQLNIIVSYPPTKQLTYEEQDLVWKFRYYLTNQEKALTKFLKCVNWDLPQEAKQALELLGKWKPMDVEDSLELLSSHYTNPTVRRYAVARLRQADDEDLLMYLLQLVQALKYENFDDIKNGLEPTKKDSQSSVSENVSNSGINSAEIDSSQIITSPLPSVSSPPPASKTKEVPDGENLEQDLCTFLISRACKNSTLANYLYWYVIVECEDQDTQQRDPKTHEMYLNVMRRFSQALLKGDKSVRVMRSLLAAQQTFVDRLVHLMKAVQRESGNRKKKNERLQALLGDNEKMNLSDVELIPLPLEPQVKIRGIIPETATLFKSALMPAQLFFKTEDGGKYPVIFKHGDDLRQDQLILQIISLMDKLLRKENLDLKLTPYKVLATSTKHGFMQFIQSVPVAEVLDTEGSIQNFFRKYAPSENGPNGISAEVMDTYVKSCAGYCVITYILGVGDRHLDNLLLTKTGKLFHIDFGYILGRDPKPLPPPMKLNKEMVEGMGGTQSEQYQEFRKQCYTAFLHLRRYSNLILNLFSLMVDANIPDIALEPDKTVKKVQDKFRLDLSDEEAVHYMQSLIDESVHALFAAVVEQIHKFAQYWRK

inhibition at 1.11 µM [%]	SMILES
98	Cc1nccc(Nc2cc(-c3cnc(Cl)c(NS(=O)(=O)c4ccc(F)cc4F)c3C)ccn2)n1 [Compound I-299, N-{6-chloro-4-methyl-2′-[(2-methylpyrimidin-4-yl)amino]-3,4′-bipyridin-5-yl}-2,4-difluorobenzenesulfonamide]
96	Cc1c(-c2ccnc(Nc3ncc(C#N)cn3)c2)cnc(Cl)c1NS(=O)(=O)c1ccc(F)cc1F [Compound I-300, N-{6-chloro-2′-[(5-cyanopyrimidin-2-yl)amino]-4-methyl-3,4′-bipyridin-5-yl}-2,4-difluorobenzene sulfonamide]
96	Cc1ncc(-c2ccnc(Nc3ccn(C)n3)c2)cc1NS(=O)(=O)c1ccc(F)cc1F [Compound I-301, 2,4-difluoro-N-{6-methyl-2′-[(1-methyl-1H-pyrazol-3-yl)amino]-3,4′-bipyridin-5-yl}benzenesulfonamide]
83	CCN(CC)C(=O)c1cc(-c2ccnc(Nc3ccnc(C)n3)c2)cnc1C [Compound I-302, N,N-diethyl-6-methyl-2′-[(2-methylpyrimidin-4-yl)amino]-3,4′-bipyridine-5-carboxamide]
95	CN(C(=O)c1cc(-c2ccnc(Nc3ccncn3)c2)cnc1N)C12CC(C1)C2 [Compound I-303, 6-amino-N-(bicyclo[1.1.1]pent-1-yl)-N-methyl-2′-(pyrimidin-4-ylamino)-3,4′-bipyridine-5-carboxamide]
96	Cc1nccc(Nc2cc(-c3cnc(C)c(C(=O)N4CCC4)c3)ccn2)n1 [Compound I-304, Azetidin-1-yl(6-methyl-2′-((2-methylpyrimidin-4-yl)amino)-3,4′-bipyridin-5-yl)methanone]
94	Cc1ncc(-c2ccnc(NC(=O)C3CCC3)c2)cc1NS(=O)(=O)c1ccc(F)cc1F [Compound I-305, N-(5-{[(2,4-difluorophenyl)sulfonyl]amino}-6-methyl-3,4′-bipyridin-2′-yl)cyclobutanecarboxamide]

The next lines start with the compound.

SMILES	inhibition at 1.11 µM [%]
Cc1ccnc(Nc2cc(-c3cnc(Cl)c(NS(=O)(=O)c4ccc(F)cc4F)c3C)ccn2)n1 [Compound I-293, N-{6-chloro-4-methyl-2′-[(4-methylpyrimidin-2-yl)amino]-3,4′-bipyridin-5-yl}-2,4-difluorobenzene sulfonamide]	> 99
Cc1nccc(Nc2cc(-c3cnc(Cl)c(NS(=O)(=O)c4ccc(F)cc4F)c3C)c(F)cn2)n1 [Compound I-294, N-{6-chloro-5′-fluoro-4-methyl-2′-[(2-methylpyrimidin-4-yl)amino]-3,4′-bipyridin-5-yl}-2,4-difluorobenzenesulfonamide]	94
Cc1nccc(Nc2cc(-c3cnc(Cl)c(NC(=O)c4ccc(F)cc4F)c3C)ccn2)n1 [Compound I-295, N-{6-chloro-4-methyl-2′-[(2-methylpyrimidin-4-yl)amino]-3,4′-bipyridin-5-yl}-2,4-difluorobenzamide]	80
Cc1c(-c2ccnc(Nc3ccnc(C4CC4)n3)c2)cnc(Cl)c1NS(=O)(=O)c1ccc(F)cc1F [Compound I-296, N-{6-chloro-2′-[(2-cyclopropylpyrimidin-4-yl)amino]-4-methyl-3,4′-bipyridin-5-yl}-2,4-difluorobenzene sulfonamide]	90
Cc1ncc(-c2ccnc(Nc3ccccn3)c2)cc1NS(=O)(=O)c1ccc(F)cc1F [Compound I-297, 2,4-difluoro-N-[6-methyl-2′-(pyridin-2-ylamino)-3,4′-bipyridin-5-yl]benzenesulfonamide]	> 99
Nc1ncc(-c2ccnc(Nc3ccncn3)c2)cc1C(=O)NC12CC(C1)C2 [Compound I-298, 6-amino-N-(bicyclo[1.1.1]pent-1-yl)-2′-(pyrimidin-4-ylamino)-3,4′-bipyridine-5-carboxamide]	99
